Assay results from patent US20160208339A1, “BIOMARKERS CORRELATED TO PARP INHIBITOR TREATMENT SUCCESS IN AML PATIENTS” (KING'S COLLEGE LONDON, priority 2013, published 2016).

Experiments:
[1] = test system: AML1-ETO transformed cells; assay: Clonogenic assay in methylcellulose, RTTA-transformed primary leukaemic cells; format: cell-based, mouse
Method: (§1) FIG. 2 AML1-ETO and PML-RARα leukemic cells are sensitive to PARPi. A) Representative scheme of experimental procedures. B) Non linear regression dose response curve. Normal bone marrow c-kit cells and pre-leukaemic cells expressing the oncofusion proteins AML1-ETO, E2A-PBX, MLL-AF9 and PML-RARα were grown in methylcellulose for 7 days with escalating doses of PARPi. Data representative of three independent experiments are shown. C) Percentage of survival of preleukemic cells to PARPi. The number of colonies surviving to seven days incubation with PARPi treatment was normalized against the untreated control. Data representative of six independent experiments are shown ±SD. […] D) Colony morphology (phase contrast microscopy, magnification 40×). Representative pictures are shown. E) Efficiency of PARP1 Knock down (KD) in NIH3T3 cells infected with retroviral vectors expressing shRNA against mouse PARP1. qPCR data showing expression of PARP1 mRNA in NIH3T3 after infection with sh-mPARP1. Data representative of two independent experiments are shown ±SD. Paired two-tailed t test was performed between empty vector and i) scramble, ii) sh-PARP1-A and iii) sh-PARP1-D*p<0.05. F) Efficiency of PARP1 by Western Blot. Western Blot data showing protein level of PARP1 in NIH3T3 after infection with sh-mPARP1. G) Efficiency of PARP1 KD in leukemic cells infected with retroviral vectors expressing shRNA against mouse PARP1. qPCR data showing expression of PARP1 mRNA in leukemic cells after infection with sh-mPARP1. Data representative of three independent experiments are shown ±SD. 2-way Anova test was performed between empty vector and i) scramble, ii) sh-PARP1-A and iii) sh-PARP1-D*p<0.05, **p<0.01, ***p<0.001. H) Relative number of colonies arisen from leukemic cells transformed by indicated oncoproteins after shPARP1-mediated KD. Bone marrow cells were co-transduced with retroviral vectors carrying the oncogene of interest and empty vector or sh-scramble or shPARP1. The number of colonies was normalized against the empty vector control. Data representative of three independent experiments are shown ±SD. 2-way Anova test was performed between empty vector and i) scramble, ii) sh-PARP1-A and iii) sh-PARP1-D*p<0.05, **p<0.01, ***p<0.001. I) Colony morphology from phase contrast microscopy (magnification 40×). Representative pictures are shown. […] The number of colonies after PARPi treatment was normalized against the untreated control. Data representative of three independent experiments are shown ±SD. […] K) Colony morphology (phase contrast microscopy, magnification 20×). Representative pictures are shown. […] The number of colonies after PARPi treatment was normalized against the untreated control. Data representative of three independent experiments are shown ±SD. […] M) Colony morphology (phase contrast microscopy, magnification 20×). Representative pictures are shown. […] The number of colonies after PARPi treatment was normalized against the untreated control. Data representative of three independent experiments are shown ±SD. […] O) Colony morphology (phase contrast microscopy, magnification 20×). Representative pictures are shown.
(§2) Briefly, c-kit positive progenitor cells of wild type Ly5.1 mouse bone marrow transduced with a retroviral vector expressing the LATFs of interest were plated into a methylcellulose medium supplemented with appropriate myeloid cytokines. Replating was performed every week to generate primary cell lines for further analysis. […] Veliparib is an inhibitor of PARP1/2 produced by Abbott and widely used in clinical trials.

[2] = test system: E2A-PBX transformed cells; assay: as above; format: cell-based, mouse; conditions: 1 μM, methylcellulose 7 days
Method: as §1, §2

[3] = test system: MLL-AF9 transformed cells; assay: as above; format: cell-based, mouse; conditions: 1 μM, methylcellulose 7 days
Method: as §1, §2

[4] = test system: PML-RARα transformed cells; assay: as above; format: cell-based, mouse
Method: as §1, §2

bone marrow c-kit+ cells = assay: PARPi titration, colony assay in methylcellulose, normal bone marrow cells; format: cell-based; conditions: Mus musculus, Bone marrow cell, 168 h; colonies counted after seven days in methylcellulose; nonlinear regression
Method: FIG. 1 PARPi titration. A) PARPi titration in normal bone marrow c-kit cells grown in methylcellulose for 7 days. Data representative of three independent experiments are shown ±SD. […] B) Non linear regression dose response curve, obtained by logarithmic transformation of the data presented in the panel A. C) Colony morphology (contrast microscopy magnification 40×). Representative pictures are shown.
Bone marrow cells were treated with escalating doses of Olaparib in methylcellulose. After seven days colonies were counted. The number of colonies obtained in the untreated condition was set as the top value (100%). The bottom value (0) was calculated as the lowest concentration resulting in no colonies. The data where then analyzed in a nonlinear regression dose-response curve (FIG. 1).

Kasumi = assay: Colony assay in methylcellulose, human cell line; format: cell-based; conditions: Olaparib 1-5 μM, methylcellulose 7 days
Method: (§3) FIG. 2 AML1-ETO and PML-RARα leukemic cells are sensitive to PARPi. A) Representative scheme of experimental procedures. B) Non linear regression dose response curve. Normal bone marrow c-kit cells and pre-leukaemic cells expressing the oncofusion proteins AML1-ETO, E2A-PBX, MLL-AF9 and PML-RARα were grown in methylcellulose for 7 days with escalating doses of PARPi. Data representative of three independent experiments are shown. C) Percentage of survival of preleukemic cells to PARPi. The number of colonies surviving to seven days incubation with PARPi treatment was normalized against the untreated control. Data representative of six independent experiments are shown ±SD. […] D) Colony morphology (phase contrast microscopy, magnification 40×). Representative pictures are shown. E) Efficiency of PARP1 Knock down (KD) in NIH3T3 cells infected with retroviral vectors expressing shRNA against mouse PARP1. qPCR data showing expression of PARP1 mRNA in NIH3T3 after infection with sh-mPARP1. Data representative of two independent experiments are shown ±SD. Paired two-tailed t test was performed between empty vector and i) scramble, ii) sh-PARP1-A and iii) sh-PARP1-D*p<0.05. F) Efficiency of PARP1 by Western Blot. Western Blot data showing protein level of PARP1 in NIH3T3 after infection with sh-mPARP1. […]

NB4 = assay: Colony assay in methylcellulose, human cell line; format: cell-based; conditions: Olaparib 1-5 μM, methylcellulose 7 days
Method: as §3

NB4-LR2 = assay: Colony assay in methylcellulose, ATRA resistant APL cell model; format: cell-based, human; conditions: Olaparib 5 μM, methylcellulose 7 days
Method: as §3

NB4-MR2 = assay: as above; format: cell-based, human; conditions: Olaparib 5 μM, methylcellulose 7 days
Method: as §3

[5] = test system: NB4 human cells expressing the oncogene PML-RARα; assay: Survival of NSG mice injected intravenously with NB4 human cells; format: in vivo
Method: (§4) A) Kaplan-Meier survival curve relative to NSG mice injected with NB4 human cells. NB4 human cells expressing the oncogene PML-RARα were injected intravenously in NSG mice and distributed in two groups. […] Treatment was performed for two weeks. Mice were monitored daily until the development of symptoms of leukaemia, when bone marrow (B), spleen (C) and liver (D) were harvested, processed, stained with PE-conjugated antibody against human CD33 and analysed by FACS, to quantify the human cell engraftment in these organs. E) Kaplan-Meier survival curve relative to NSG mice injected with Kasumi human cells. Kasumi human cells expressing the oncogene AML1-ETO were injected intra-femur in NSG mice and distributed in two groups. […] Treatment was performed for two weeks. Mice were monitored daily until the development of symptoms of leukaemia, when bone marrow (F), spleen (G) and liver (H) were harvested, processed, stained with PE-conjugated antibody against human CD33 and analysed by FACS, to quantify the human cell engraftment in these organs. I) and J Kaplan-Meier survival curves of FVB and C57Bl/6 mice injected with M4-PML-RARα and MLL-AF9 cells, respectively. ATRA resistant M4-PML-RARα cells were injected intravenously in FVB mice and distributed in three groups. […] Mice were monitored daily until the development of symptoms of leukaemia, when bone marrow (K), spleen (L) and liver (M) were harvested, processed, stained with PE-conjugated antibody against mouse Gr1 and analysed by FACS, to quantify the human cell engraftment in these organs. […]
(§5) In order to test the efficacy of this treatment in vivo, we transplanted Kasumi and NB4 cell lines into a small cohort of sublethally irradiated NOD/SCID/IL2Rg−/− (NSG) mice by intra-femoral and intravenous injection, respectively. […] The maximum dose tolerated was calculated by in vivo dose-response experiments. Mice were monitored daily until they developed symptoms of leukaemia, when they were culled and bone marrow, spleen and liver harvested and analyzed by FACS. […]

[6] = test system: Kasumi human cells expressing the oncogene AML1-ETO; assay: Survival of NSG mice injected intra-femur with Kasumi human cells; format: in vivo
Method: as §4, §5

[7] = test system: ATRA resistant M4-PML-RARα cells; assay: ATRA resistant mouse model, FVB mice injected with M4-PML-RARα cells; format: in vivo; conditions: Olaparib 50 mg/kg intra-peritoneal daily for two weeks
Method: as §4, with “organs.” for “organs. I) and J Kaplan-Meier survival curves of FVB and C57Bl/6 mice injected with M4-PML-RARα and MLL-AF9 cells, respectively. ATRA resistant M4-PML-RARα cells were injected intravenously in FVB mice and distributed in three groups.”

MLL-AF9 cells = assay: C57Bl/6 mice injected with leukaemic MLL-AF9 cells; format: in vivo; conditions: Olaparib 50 mg/kg intra-peritoneal daily for two weeks
Method: as §4, with “organs.” for “organs. I) and J Kaplan-Meier survival curves of FVB and C57Bl/6 mice injected with M4-PML-RARα and MLL-AF9 cells, respectively. ATRA resistant M4-PML-RARα cells were injected intravenously in FVB mice and distributed in three groups.”

[8] = test system: breast, prostate and ovarian cancer patients carrying mutations in BRCA1 or BRCA2 genes; conditions: phase I and phase II trials; cited from earlier work
[9] = test system: untargeted population of ovarian cancer; conditions: phase II; cited from earlier work
[10] = Olaparib 25 mg/kg daily for two weeks, FACS human CD33
[11] = Olaparib 25 mg/kg intra-peritoneal daily for two weeks

Which effect on colonies ([1]; 1 μM, methylcellulose 7 days) does the source give for `C[C@]1(c2nc3c(C(N)=O)cccc3[nH]2)CCCN1` [Veliparib, 2-((R)-2-methylpyrrolidin-2-yl)-1H-benzimidazole-4-carboxamide] here?
Its effect on colonies is “reduced colonies”.

And the effect on colonies [2]?
Its effect on colonies is “no effect”.

What about the effect on colonies [3] of the same compound?
The effect on colonies was “no effect”.

And the effect on colonies ([4]; 1 μM, methylcellulose 7 days)?
The effect on colonies was “reduced colonies”.

With `O=C(c1cc(Cc2n[nH]c(=O)c3ccccc23)ccc1F)N1CCN(C(=O)C2CC2)CC1` [Olaparib, 4-[(3-[(4-cyclopropylcarbonyl)piperazin-4-yl]carbonyl)-4-fluorophenyl]methyl(2H)-phthalazin-1-one] as the compound, how does the IC50 (bone marrow c-kit+ cells) read?
The IC50 was 1900 nM.

And the IC50 ([1]; Mus musculus, 168 h)?
Its IC50 is 33.4 nM.

And the “reduction in colony forming ability” value ([1]; Olaparib 1 uM, p<0.05)?
Its value is 70-90%.

What about the “reduction of number of colonies after additional replating” value ([1]; replating in semi-solid medium containing Olaparib, p<0.05) of the same compound?
Its value is 90%.

What about the IC50 ([4]; Mus musculus, 168 h) of the same compound?
Its IC50 is 15.8 nM.

And the “reduction in colony forming ability” value ([4]; Olaparib 1 uM, p<0.05)?
Its value is 70-90%.

And the “efficacy on colony number” value (Kasumi)?
Its value is “confirm the efficacy”.

What about the “efficacy on colony number” value (NB4) of the same compound?
The value was “confirm the efficacy”.

What about the “sensitivity (colony number)” value (NB4-LR2) of the same compound?
The value was “extremely sensitive”.

And the “sensitivity (colony number)” value (NB4-MR2)?
The value was “extremely sensitive”.

And the “engraftment in bone marrow, spleen and liver” value [5, 10]?
Its value is “variable reduction”.

And the “onset of the leukaemia” value [5, 11]?
Its value is “significantly delayed”.

What about the median survival ([5]; Olaparib 25 mg/kg intra-peritoneal daily for two weeks, control 30 days) of the same compound?
Its median survival is 47 days.

What about the “engraftment in bone marrow, spleen and liver” value [6, 10] of the same compound?
The value was “variable reduction”.

And the “onset of the leukaemia” value [6, 11]?
Its value is “significantly delayed”.

And the median survival ([6]; Olaparib 25 mg/kg intra-peritoneal daily for two weeks, control 50 days, experiment still ongoing)?
The median survival was 115 days.

And the “onset of the leukaemia” value [7]?
Its value is “significantly delayed”.

And the “effect on mice developing leukaemia” value (MLL-AF9 cells)?
Its value is “did not have any significant effect”.

And the anti-tumour effect [8]?
The anti-tumour effect was “anti-tumour effect”.

And the side effects [8]?
The side effects was “grade 1 or 2”.

And the “overall survival benefit compared to chemotherapy” value [9]?
Its value is “failed to show overall survival benefit”.
